The results in this text go back to US20150004100A1, “HETEROCYCLIC COMPOUNDS AS IMAGING PROBES OF TAU PATHOLOGY” (GE HEALTHCARE LIMITED, priority 2011, published 2015).

SMILES strings stand for the structures.

The subject of one data set is tau+ NFTs. Nature of the data set: Tissue binding assay (fluorescence), NFTs in human AD tissue sections. The note with it: 100 μM, human AD tissue. Further details: key to NFTs (staining): −: No staining; +: weak staining; ++: moderate staining; +++: intense staining. The method, then: (§1) Human brain tissue samples from the entorhinal cortex of patients with Alzheimer's disease (AD) and healthy controls were obtained from Tissue Solutions (Tissue Solutions Ltd, Glasgow, UK). Tissue samples were collected after informed written consent, and specimens were dissected at the tissue bank and snap-frozen for cryopreservation at a time interval of between 3 and 18 h after death. The frozen tissue was embedded in TissueTek® (VWR) and sectioned using a Microm HM560 cryostat (Thermo Scientific). Serial 12 μm sections were mounted onto SuperFrost®+ glass slides (VWR) and stored a −70° C.
(§2) The binding of compounds to tau+NFTs and Aβ+ plaques in human AD tissue were evaluated based on fluorescence.
(§3) Briefly, tissue sections were defrosted and fixed in ice-cold 70% ethanol. All tissue sections were rinsed with PBS after fixation and between all subsequent incubation steps. To quench autofluorescence, tissue sections were incubated first with 0.25% KMnO4 (Sigma-Aldrich) in PBS for 12 min, and then with 0.1% […]/0.1% oxalic acid (both reagents from Sigma-Aldrich) in PBS for 1 min. The tissue sections were blocked with 2% BSA in PBS for 10 min, and then incubated with the test compounds at 100 μM concentration for 1 h at RT. […] Finally the tissue sections were rinsed in PBS, and mounted in SlowFade® mounting media (Invitrogen). Images of labelled tissue sections were captured using a Nikon digital camera connected to a Leica microscope and using the NIS Elements D software (Nikon). Images were further processed with the Photoshop® software (Adobe).

For data set [1], the system named is Aβ+ plaques. In words: Tissue binding assay (fluorescence), plaques in human AD tissue sections. The following applies: human AD tissue. More on the design: key to Plaques (staining): −: No staining; +: weak staining; ++: moderate staining; +++: intense staining.
Data set [2] relates to Aβ+ plaques. The description is as above. The following applies: 100 μM, human AD tissue. Further details: key to Plaques (staining): −: No staining; +: weak staining; ++: moderate staining; +++: intense staining. The method, then: as §1, §2, §3
Data set [3] is described as follows: Protein binding assay, rat brain homogenates (rapid equilibrium dialysis). Type of data set: in vitro ADME. The note with it: rat brain homogenate, % bound, criterion <99%. How it is done: (§4) The protein binding assays provide an estimate of free (unbound) fraction of the compound in the blood or brain in vivo. […] The desirable criterion for this assay is <99% of test compound bound.
(§5) Test compounds were first dissolved in DMSO to a concentration of 50 μM. This was followed by incubation in samples of human plasma and rat brain homogenates (final test concentration 1 μM). Binding of compounds to proteins was determined in the samples by rapid equilibrium dialysis after 5 and 30 min of incubation.

The subject of the next data set is rat liver microsomes. Nature of the data set: Liver microsome stability assay, rat. Type of data set: in vitro ADME. The following applies: 1 μM, 37° C., parent compound remaining, criterion >50%. The method, then: (§6) The liver microsome stability assay provides an estimate of compound stability and rate of metabolism in vivo. The desirable criterion for this assay is >50% parent compound after 30 min.
(§7) A 1 μM compound solution was incubated with rat or human liver microsomes (20 mg/ml) at 37° C. and the amount of parent compound remaining following the incubation was determined after 5 and 30 min of incubation using LC-MS.
(In general: Liver microsomes are vesicles of endoplasmic reticulum, rich in cytochrome P450 enzymes.)

Data set [4] in a line: Protein binding assay, human plasma (rapid equilibrium dialysis). Type of data set: in vitro ADME. The following applies: % bound, criterion <99%. How it is done: as §4, §5
A further data set has as its system human liver microsomes. In words: Liver microsome stability assay, human. It counts as in vitro ADME. The note with it: 1 μM, 37° C., parent compound remaining, criterion >50%. How it is done: as §6, §7
Data set [5] is described as follows: PAMPA (parallel artificial membrane permeability assay). It counts as in vitro ADME. The following applies: 10 μM, 5 h at RT; criterion >−6. How it is done: The PAMPA assay is used to determine how well a compound crosses a cell membrane by measuring its passage through a phosphotidyl choline barrier. A permeability coefficient >−6 indicates high permeability across lipid membranes and is indicative of a compounds ability to cross the blood brain barrier.
A 10 μM solution was incubated on a PDVF membrane coated with a 2% phoshotidyl choline solution for 5 h at RT. Membrane penetration was measured using LC-MS.

The nature of data set [6]: In vivo cold bio-distribution in rat (brain uptake, LC-MS). The following applies: for tissue uptake at 2 min / tissue uptake at 10 min / tissue uptake at 30 min / tissue uptake at 60 min: male, Wistar, brain, iv, 50 μg/rat; for tissue uptake at 10 min: 10 min p.i.; for tissue uptake at 30 min: 30 min p.i.; for tissue uptake at 60 min: 60 min p.i.; for Clearance ratio 2:30 min: rat brain, 2 min vs 30 min p.i. The method, then: All animal studies were in compliance with local rules and regulations. Test compounds were administered by intravenous (i.v) injection through the tail vein of naïve male Wistar rats (50 μg test compound/rat). The animals were sacrificed by dislocation of the neck at 2, 10, 30, 60 min post-injection (p.i). The brain and plasma were collected from each animal. The concentration of test compound was measured in the plasma and brain homogenates using LS-MS, and calculated as % compound/g (% ID/g).

`COc1ccc(-n2nc(C(=O)NC(C)C)c3csc(N(C)C)c3c2=O)cc1` [Compound 82]: the “NFTs (staining)” value in the data set on tau+ NFTs (Table 2) is given as “+”. In addition, the “Plaques (staining)” value with Aβ+ plaques [1] (Table 2, 1 μM) is listed as “−”; in the data set on Aβ+ plaques [1] (Table 2, 10 μM), “−”; in the data set on Aβ+ plaques [2] (Table 2) it was “++”.

On to `CNc1scc2c(C(=O)NC(C)C)nn(-c3ccc(OC)cc3)c(=O)c12` [Compound 87], for which the “NFTs (staining)” value in the data set on tau+ NFTs (Table 3) is given as “−”. Also, the “Plaques (staining)” value in the data set with Aβ+ plaques [2] (Table 3) was “−”.

As to `COc1ccc(-n2nc(C(=O)N3CCN(c4cccc(F)n4)CC3)c3csc(N)c3c2=O)cc1` [Compound 90], the unbound share (fraction unbound) at 1 μM in data set [3] was 0.112; in data set [4], 0.0084. Moreover, the “Liver stability Rat (% PCP) 5 min” value in the data set with rat liver microsomes (5 min) was 72.67 % PCP. Besides, the “Liver stability Rat (% PCP) 30 min” value in the data set on rat liver microsomes (30 min) came out at 53.0 % PCP. For the same compound, in the data set with Aβ+ plaques [2] (Table 2), the “Plaques (staining)” value is on record as “−”. The “Liver stability Human (% PCP) 5 min” value in the data set with human liver microsomes (5 min) was found to be 44.62 % PCP. In addition, the “Liver stability Human (% PCP) 30 min” value in the data set with human liver microsomes (30 min) came to 2.57 % PCP. In [5], the “PAMPA Log Pe” value is reported as −5.51.

Turning to `COc1ccc(-n2nc(C(=O)N3CCN(c4cccc(F)n4)CC3)c3csc(NC(=O)OC(C)(C)C)c3c2=O)cc1` [Compound 91], in the data set with tau+ NFTs (Table 2), the “NFTs (staining)” value is listed as “−”. For the same compound, in the data set with Aβ+ plaques [2] (Table 2), the “Plaques (staining)” value is “−”.

For the compound `COc1ccc(-n2nc(NCCF)c3csc(N)c3c2=O)cc1` [Compound 99], the tissue uptake at 2 min in data set [6] (rat, 2 min p.i.) was over 0.2 %ID/g. In data set [6] (rat), this compound had a tissue uptake at 10 min of 0.092 %ID/g, a tissue uptake at 30 min of 0.013 %ID/g and a tissue uptake at 60 min of 0.001 %ID/g. Moreover, the “Clearance ratio 2:30 min” value in data set [6] was 23.8. Moreover, the “Brain uptake and clearance (in words)” value in data set [6] (rat, from clearance ratio) was “rapid brain uptake followed by rapid clearance”. Moreover, the “Brain uptake % ID/g p.i” value in data set [6] (rat, i.v., 2 min p.i.) is on record as 0.31 % ID/g.

On to `CC(C)(C)OC(=O)c1nn(-c2ccc(OCCF)cc2)c(=O)c2c(N)scc12` [Compound 104], for which the “NFTs (staining)” value in the data set with tau+ NFTs (Table 4) is listed as “−”. In the data set with Aβ+ plaques [2] (Table 4), the “Plaques (staining)” value is recorded as “−”.

On to `COc1ccc(-n2nc(C(=O)NCCF)c3csc(N)c3c2=O)cc1` [Compound 106], for which the tissue uptake at 2 min in data set [6] (rat, 2 min p.i.) amounted to 0.014 %ID/g. Also, in data set [6] (rat), the tissue uptake at 10 min was determined as 0.001 %ID/g, the tissue uptake at 30 min is 0.004 %ID/g and the tissue uptake at 60 min was 0.001 %ID/g. Besides, the “Clearance ratio 2:30 min” value in [6] is reported as 3.5. Further, the “Brain uptake (in words)” value in [6] (rat, cold bio-distribution) is “low brain uptake”. Further, in the data set on Aβ+ plaques [2] (Table 3), the “Plaques (staining)” value is on record as “−”.

Regarding `COc1ccc(-n2nc(C(=O)N3CC[C@@H](F)C3)c3csc(N)c3c2=O)cc1` [Compound 107], the “NFTs (staining)” value in the data set on tau+ NFTs (Table 3) was “−”. The “Plaques (staining)” value is recorded as “−” with Aβ+ plaques [1] (Table 3, 1 μM); “−” with Aβ+ plaques [1] (Table 3, 10 μM); “+” in the data set with Aβ+ plaques [2] (Table 3).

Take `COc1ccc(-n2nc(C(=O)N3CC[C@H](F)C3)c3csc(N)c3c2=O)cc1` [Compound 108]: the “NFTs (staining)” value in the data set with tau+ NFTs (Table 3) is given as “−”. In addition, the “Plaques (staining)” value with Aβ+ plaques [2] (Table 3) is “−”.

What is called fraction unbound is free concentration divided by total concentration. By tissue uptake is commonly meant the percentage of the injected dose found per gram of tissue.
